Laboratory results from EP0334956A1, “HEMOLYSIS INHIBITOR AND MEDICAL RESIN COMPOSITION, MEDICAL IMPLEMENT, AND BLOOD-PRESERVING FLUID CONTAINING THE SAME” (KAO CORPORATION, priority 1986, dated 1988).
Where a name gives a salt, the structure may show the parent alone. Read-outs that look alike come from different tables or passages of the source.

Columns and labels:
[1] = tested on: concentrated human red cells; test: Hemolysis of CRC stored with blood preserving liquid (SAG solution/Tween 80 emulsion); format: cell-based; settings: 4°C, 5 weeks
Protocol: An emulsion was produced by dissolving Tween 80 (reagent grade produced by Wako Junyaku K.K.) in a SAG solution (containing 140 mM of NaCl, 1.25 mM of adenine and 50 mM of glucose) so as to be contained therein in a concentration of 600 µg/ml adding 12 mM isopropyl isotridecyl maleate to the resultant solution, and stirring the resultant mixture for uniform dispersion. In a stoppered polypropylene tube, a mixture of 1.0 ml of the emulsion prepared as described above and 2.0 ml of a liquid of concentrated human red cells adjusted in advance to a hematocrit value of about 70% was left standing at 4°C for 5 weeks. The resultant liquid was tested for free hemoglobin concentration in plasma by following the procedure of Example 1.
An emulsion was prepared by dissolving Tween 80 (reagent grade product of Wako Junyaku K.K.) in a SAG liquid so as to be contained therein in a concentration of 600 µg/ml, adding 12 mM of glycerine-l-butyl-3-isostearyl ether and stirring the resultant mixture for 'uniform dispersion. In a stoppered polypropylene tube, a mixture of 1.0 ml of the emulsion prepared as described above and 2.0 ml of CRC adjusted in advance to a hematocrit value of about 70% was left stnading at 4°C for 5 weeks. At the end of this standing, the CRC liqud was tested for change of free hemoglobin concentration in plasma by following the procedure of Example 1.
An emulsion was prepared by dissolving Tween 80 (reagent grade product of Wako Junyaku K.K.) in a SAG liquid so as to be contained therein in a concentration of 600 ug/ml, adding 12 mM of isopropyl isolaurate to the resultant solution, and stirring the resultant mixture for uniform dispersion. In a stoppered polypropylene tube, a mixture of 1.0 ml of the emulsion prepared as described above and 2.0 ml of CRC adjusted in advance to a hematocrit value of about 70% and then left standing at 4°C for 5 weeks. At the end of the satnding, the liquid was tested for free hemoglobin concentraiton in plasma by following the procedure of Example 1. The results are shown in Talbe 24.

[2] = tested on: human platelet rich plasma; test: Platelet aggregation in platelet rich plasma (Aggrecoder); format: cell-based; settings: 40 mM methanol solution added in 1/100, room temperature 2 hours, relative to blank; for Ratio of platelet aggregation: 400 µM; for activity at 400 µM: Homo sapiens, Platelet, 2 h, read-out: Ratio of platelet aggregation
Protocol: A 40 mM methanol solution of isopropyl isotridecyl maleate (Example 13), a 40 mM methanol solution of glycerine-l-butyl-3-isostearyl ether (Example 14), a 40 mM methanol solution of isopropyl isolaurate (Example 15), a 40 mM methanol solution of di-2-ethylhexyl phthalate (Control 19) and methanol containing no added compound (Control 20) were severally added to a human platelet rich plasma (count of platelets about 300,000/mm ) in a fixed amount of 1/100, left standing at room temperature for 2 hours, and tested for platelet aggregation by the use of an instrument (product of Kyoto Daiichikagaku K.K. marketed under "Aggrecoder").
The percentage of transmittance of light through the solution of platelet rich plasma containing a given sample to the maximum transmittance of light through the same solution of platelet rich plasma not containing the sample (blank) was reported as the ratio of aggregation of the sample. As aggregation inducers, 5 µM ADP (adenosine diphosphoric acid) and 5 ug/ml collagen were used.

[3] = tested on: human concentrated red cells; test: Hemolysis of stored CRC, reagent added as Tween 80/physiological saline emulsion; plasma hemoglobin by TMB method; format: cell-based; settings: for hemolysis depressing capacity (in words): summary of Tables 1 through 6 (emulsion and direct addition); for Hemoglobin concentration in plasma: Table 1, emulsion, 4°C, 4 weeks
Protocol: Isopropyl isotridecyl maleate was added to a 2000ug/ml polyoxyethylene monooleate (reagent-grade product of Wako Junyaku K.K. marketed under trademark designation of "Tween 80")/physiological saline mixed solution in such an amount to be contained therein in a final concentration of 4mM. A 0.2ml aliquot of the resultant emulsion was added to a human concentrated red cells (hereinafter referred to as "CRC") adjusted in advance to a hematocrit value of about 70% so as to be contained therein in a final concentration indicated in Table 1. The resulting liquid was placed in a stoppered polypropylene tube and left standing at rest at 4°C for 4 weeks. At the end of this standing, it was tested for plasma hemoglobin concentration by the TMB method (Clin. Chem., 23, 749-(1977)).
An emulsion was prepared by following the procedure of Example 1, except that isopropyl decyl maleate was used in place of isopropyl-isotridecyl maleate. A CRC sample incorporating the emulsion was left standing and thereafter tested for plasma hemoglobin concentration.
Emulsions were prepared by following the procedure of Excample 1, except that di-2-ethylhexyl phthalate (Control 1) and diisopropyl maleate, a carboxylic ester compound deviating from the scope of the present invention (Control 2) were respectively used in place of isopropyl isotridecyl maleate. CRC samples severally incorporating the emulsions were left standing and, thereafter, tested for plasma hemoglobin concentration.
Glycerine-l-butyl-3-isostearyl ether was added to a 2000 ug/ml polyoxyethylene monooleate (regent-grade product of Wako Junyaku K.K. marketed under trademark designation of "Tween 80")/ physiological saline mixed solution so as to be contained therein in a final concentration of 4 mM. A 0.2ml aliquot of the resultant emulsion was added to CRC adjusted in advance to a hematocrit value of about 70% so as to be contained therein in a final concentration indicated in Table 3. The resultant liquid was placed in a stoppered polypropylene tube and left standing at 4°C for 4 weeks. Thereafter, it was tested for plasma hemoglobin concentration by following the procedure of Example 1.
An emulsion was prepared by following the procedure of Example 5, except that glycerine-1,3-dioctyl ether was used in place of glycerine- l-butyl-3-isostearyl ether. A CRC sample incorporating the resultant emulsion was left standing and, thereafter, tested for plasma hemoglobin concentration. Controls 7 and 8
Emulsions were prepared by following the procedure of Example 5, except that di-2-ethylhexyl phthalate (Control 7) and glycerine monooctyl ether, an ether compound deviating from the scope of the present invention, (Control 8) were respectively used in place of glycerine-l-butyl-3-isostearyl ether. CRC samples incorporating the emulsions were left standing and, thereafter, tested for plasma hemoglobin concentration.
Isopropyl isolaurate was dispersed in a 2000 ug/ml poloxyethylene monooleate (reagent-grade product of Wako Junyaku K.K. marketed under trademark designation of "Tween 80")/physiological saline mixed solution so as to be contained therein in a concentration of 4 mM. A 0.2-ml aliquot of the resultant emulsion was added to CRC adjusted in advance to a hematocrit value of about 70% so as to be contained therein in a final concentration indicated in Table 5. The resultant liquid was placed in a stoppered polypropylene tube and left standing at 4°C for 4 weeks. Thereafter, it was tested for plasma hemoglobin concentration by following the procedure of Example 1.
An emulsion was prepared by following the procedure of Example 9, except that 2-ethylhexyl isostearate was used in place of isopropyl isolaurate. A CRC sample incorporating the resultant emulsion was left standing and, thereafter, tested for plasma hemoglobin concentration.

[4] = tested on: CRC; test: Hemolysis of stored CRC, reagent added directly to CRC; plasma hemoglobin by TMB method; format: cell-based, human; set-up: unit not given here; settings: Table 2, direct addition, 4°C, 4 weeks
Protocol: (§1) Isopropyl isotridecyl maleate was added to CRC adjusted in advance to a hematocrit value of about 70% so as to be contained threrein in a final concentration indicated in Table 2 and stirred gently. The resultant liquid was placed in a stoppered polypropylene tube and left standing at rest at 4°C for 4 weeks, while subjecting to gentle stirring per a week. Thereafter, it was tested for plasma hemoglobin concentration by following the procedure of Example 1.
By following the procedrue of Example 3, isopropyl decyl maleate was added to CRC in the place of isopropyl isotridecyl maleate. The resultant liquid was left standing and, thereafter, tested for plasma hemoglobin concentration.
CRC samples were obtained by following the procedure of Example 3, except that di-2-ethylhexyl phthalate (Control 4) and diisopropyl maleate, a carboxylic ester compound deviating from the scope of this invention, (Control 5) were respectively used in place of isopropyl isotridecyl maleate. The resultant liquids were left standing and, thereafter, tested for plasma hemoglobin concentration.
as §1, with “Glycerine-l-butyl-isostearyl ether” for “Isopropyl isotridecyl maleate”, “therein” for “threrein”, “4” for “2”, “standing” for “standing at rest”
A CRC sample was prepared by following the procedure of Example 7, except that glycerine-1,3-dioctyl ether was used in place of glycerine-1-butyl 3-isostearyl ether. The resultant liquid was left standing and, thereafter, tested for plasma hemoglobin concentration.
Emulsions were prepared by following the procedure of Example 7, excepting di-2-ethylhexyl phthalate (Control 10) and glycerine monooctyl ether, an ether compound deviating from the scope of the present invention, (Control 11) were respectively used in the place of glycerine-l-butyl-3-isostearyl ether. CRC samples incorporating the emulsions were left standing and, thereafter, tested for plasma hemoglobin concetnration.
as §1, with “Isopropyl isolaurate” for “Isopropyl isotridecyl maleate”, “contained therein” for “contained threrein”, “Table 4” for “Table 2”, “was place” for “was placed”, “standing” for “standing at rest”, “stirring par” for “stirring per”
An emulsion was prepared by following the procedrue of Example 11, except that 2-ethylhexyl isostearate was used in place of isopropyl isolaurate. A CRC sample incorporating the resultant emulsion was left standing and, thereafter, tested for plasma hemoglobin concentration.
Emulsions were prepared by following the procedure of Example 11, except that di-2-ethylhexyl phthalate (Control 16) and ethyl-2-ethylhexanoate, a monocarboxylic ester compound deviating from the scope of the present invention, (Control 17) were respectively used in place of isopropyl isolaurate. CRC samples incorporating the resultant emulsions therein were left standing and, thereafter, tested for plasma hemoglobin concentraiton.

[5] = aggregation inducer 5 µg/ml collagen

| Compound | hemolysis depressing capacity (in words) [3] | Hemoglobin concentration in plasma ([3]; final concentration 0.4 mM) [Mg/ml] | Hemoglobin concentration in plasma ([3]; final concentration 4.0 mM) [Mg/ml] | Hemoglobin concentration in plasma ([4]; final concentration 0.4 mM) | Hemoglobin concentration in plasma ([4]; final concentration 4.0 mM) | further results |
| --- | --- | --- | --- | --- | --- | --- |
| Glycerine-1-butyl-3-isostearyl ether | – | – | – | – | – | Concentration of Free Hemoglobin in Plasma ([1]; Table 23, final concentration of the additive in CRC 0.4 mM): 71 mg/dL; Concentration of Free Hemoglobin in Plasma ([1]; Table 23, final concentration of the additive in CRC 4.0 mM): 102 mg/dL; Ratio of platelet aggregation ([2]; aggregation inducer 5 µM ADP): 101.0%; Ratio of platelet aggregation [2, 5]: 103.1% |
| CCCCC(CC)C(=O)OCC (stereo not shown) [Ethyl-2-ethylhexanoate, reference compound] | possessed virtually no ability to prevent hemolysis or conversely caused hemolysis | – | – | – | – | – |
| CCCCCCCCCCOC(=O)/C=C\C(=O)OC(C)C [Isopropyl decyl maleate] | – | 41 | 43 | 95 | 99 | – |
| CC(C)CCCCCCCCC(=O)OC(C)C [Isopropyl isolaurate] | – | – | – | – | – | Concentration of Free Hemoglobin in Plasma ([1]; Table 24, final concentration of the additive in CRC 0.4 mM): 86 mg/dL; Concentration of Free Hemoglobin in Plasma ([1]; Table 24, final concentration of the additive in CRC 4.0 mM): 230 mg/dL; Ratio of platelet aggregation ([2]; aggregation inducer 5 µM ADP): 99.3%; Ratio of platelet aggregation [2, 5]: 101.6% |
| CCCCCCCCOCC(O)CO (stereo not shown) [Glycerine monooctyl ether, reference compound] | possessed virtually no ability to prevent hemolysis or conversely caused hemolysis | – | – | – | – | – |
| CC(C)OC(=O)/C=C\C(=O)OC(C)C [Diisopropyl maleate, reference compound] | possessed virtually no ability to prevent hemolysis or conversely caused hemolysis | 124 | 138 | 135 | 160 | – |
| CC(C)CCCCCCCCCCOC(=O)/C=C\C(=O)OC(C)C [Isopropyl isotridecyl maleate] | – | 35 | 33 | 90 | 95 | activity at 400 µM ([2]; aggregation inducer 5 µM ADP): 94.3%; activity at 400 µM [2, 5]: 94.5% |
